Source: patent US20250243180A1, “TARGETED PROTEIN DEGRADATION” (Monte Rosa Therapeutics AG, priority 2023, published 2025)
Where two headings read alike, the source gives them in different places.

Key:
[1] = biological target: CRBN-DDB1 (Homo sapiens (Human), UniProt Q96SW2); assay: Compound binding to CRBN by HTRF assay
Outline: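 Ki calculated via Cheng-Prusoff from geometric-mean EC50 values, after normalizing the HTRF ratio to lenalidomide (active) and DMSO (neutral) controls. Compounds (11 points, 1:3 steps) incubated 30 min at ambient temperature with CRBN-DDB1 2.5 nM, anti-His Tb cryptate and Cy5-thalidomide tracer 100 nM.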

[2] = biological target: NEK7 (Homo sapiens (Human), UniProt Q8TDX7+Q96SW2); assay: NEK7 NanoBiT degradation assay in Cal51 NEK7 NanoBiT cell line; format: cell-based; conditions: Cal51 NEK7 NanoBiT cells, 24 hours; for Dmax: CAL-51
Outline: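 EC50 comes from a 4-parameter fit of control-normalized luminescence. The luminescence reports HiBiT-NEK7 (endogenous knock-in) complemented by stably expressed LgBiT in Cal51 cells after 24 h compound exposure at 37 °C. Final concentrations ran 1 μM to 0.05 nM, with Endurazine substrate present in the medium throughout.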

[3] = NEK7 degradation, read-out: NanoBiT Dmax
[4] = NEK7 degradation, read-out: NanoBiT DC50

Sequence of CRBN-DDB1 (Q96SW2 whole entry): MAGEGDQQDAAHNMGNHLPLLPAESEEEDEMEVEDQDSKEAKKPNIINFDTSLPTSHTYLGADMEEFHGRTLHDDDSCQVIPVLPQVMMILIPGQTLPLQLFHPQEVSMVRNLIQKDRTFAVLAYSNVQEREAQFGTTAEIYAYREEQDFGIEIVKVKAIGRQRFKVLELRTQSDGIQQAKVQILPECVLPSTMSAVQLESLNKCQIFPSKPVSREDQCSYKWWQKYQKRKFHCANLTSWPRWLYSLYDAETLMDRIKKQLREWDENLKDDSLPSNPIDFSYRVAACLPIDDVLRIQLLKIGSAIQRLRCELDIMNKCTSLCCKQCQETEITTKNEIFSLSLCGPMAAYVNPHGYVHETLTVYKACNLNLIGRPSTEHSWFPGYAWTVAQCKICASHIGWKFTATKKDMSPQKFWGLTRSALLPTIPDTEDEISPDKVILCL
Sequence of CRBN-DDB1 (Q16531 whole entry partner): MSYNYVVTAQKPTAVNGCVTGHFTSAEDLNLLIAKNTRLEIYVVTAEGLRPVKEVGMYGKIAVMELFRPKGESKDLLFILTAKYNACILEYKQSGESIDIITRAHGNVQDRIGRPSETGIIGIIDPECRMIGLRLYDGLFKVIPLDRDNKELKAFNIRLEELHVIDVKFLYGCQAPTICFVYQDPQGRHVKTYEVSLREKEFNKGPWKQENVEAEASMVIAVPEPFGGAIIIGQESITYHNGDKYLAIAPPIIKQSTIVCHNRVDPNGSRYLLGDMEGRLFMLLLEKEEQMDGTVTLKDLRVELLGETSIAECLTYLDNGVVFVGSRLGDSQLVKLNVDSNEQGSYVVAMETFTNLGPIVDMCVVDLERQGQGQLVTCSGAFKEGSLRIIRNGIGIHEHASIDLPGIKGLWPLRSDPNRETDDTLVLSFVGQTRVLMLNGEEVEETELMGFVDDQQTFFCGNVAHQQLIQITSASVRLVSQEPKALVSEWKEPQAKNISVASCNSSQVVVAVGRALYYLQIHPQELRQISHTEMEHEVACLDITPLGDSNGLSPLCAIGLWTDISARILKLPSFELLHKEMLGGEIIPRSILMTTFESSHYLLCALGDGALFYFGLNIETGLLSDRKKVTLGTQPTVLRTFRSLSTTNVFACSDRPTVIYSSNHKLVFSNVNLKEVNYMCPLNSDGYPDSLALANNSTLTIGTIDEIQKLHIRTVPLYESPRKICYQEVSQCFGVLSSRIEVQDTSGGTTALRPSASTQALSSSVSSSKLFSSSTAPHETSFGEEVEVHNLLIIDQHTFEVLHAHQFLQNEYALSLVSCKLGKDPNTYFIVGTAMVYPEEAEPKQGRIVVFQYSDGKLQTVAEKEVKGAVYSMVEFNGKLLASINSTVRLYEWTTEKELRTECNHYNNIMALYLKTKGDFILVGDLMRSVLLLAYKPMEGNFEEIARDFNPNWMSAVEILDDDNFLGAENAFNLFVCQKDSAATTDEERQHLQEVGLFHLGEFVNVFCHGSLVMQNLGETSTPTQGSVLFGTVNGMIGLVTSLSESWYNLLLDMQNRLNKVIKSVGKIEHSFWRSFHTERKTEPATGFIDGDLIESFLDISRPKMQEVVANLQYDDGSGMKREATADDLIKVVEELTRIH
Sequence of NEK7 (Q8TDX7 whole entry): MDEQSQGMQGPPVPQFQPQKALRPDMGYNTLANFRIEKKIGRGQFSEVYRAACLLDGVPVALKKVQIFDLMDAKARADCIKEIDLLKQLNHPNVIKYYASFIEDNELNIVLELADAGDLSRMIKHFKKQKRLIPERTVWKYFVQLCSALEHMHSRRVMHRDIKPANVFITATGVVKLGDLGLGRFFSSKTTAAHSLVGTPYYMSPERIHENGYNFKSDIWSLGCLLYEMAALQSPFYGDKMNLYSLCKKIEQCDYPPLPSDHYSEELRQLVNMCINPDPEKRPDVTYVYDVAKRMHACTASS
Sequence of NEK7 (Q96SW2 whole entry): as the sequence (Q96SW2 whole entry) above
Sequence of NEK7 (Q16531 2-1140 partner): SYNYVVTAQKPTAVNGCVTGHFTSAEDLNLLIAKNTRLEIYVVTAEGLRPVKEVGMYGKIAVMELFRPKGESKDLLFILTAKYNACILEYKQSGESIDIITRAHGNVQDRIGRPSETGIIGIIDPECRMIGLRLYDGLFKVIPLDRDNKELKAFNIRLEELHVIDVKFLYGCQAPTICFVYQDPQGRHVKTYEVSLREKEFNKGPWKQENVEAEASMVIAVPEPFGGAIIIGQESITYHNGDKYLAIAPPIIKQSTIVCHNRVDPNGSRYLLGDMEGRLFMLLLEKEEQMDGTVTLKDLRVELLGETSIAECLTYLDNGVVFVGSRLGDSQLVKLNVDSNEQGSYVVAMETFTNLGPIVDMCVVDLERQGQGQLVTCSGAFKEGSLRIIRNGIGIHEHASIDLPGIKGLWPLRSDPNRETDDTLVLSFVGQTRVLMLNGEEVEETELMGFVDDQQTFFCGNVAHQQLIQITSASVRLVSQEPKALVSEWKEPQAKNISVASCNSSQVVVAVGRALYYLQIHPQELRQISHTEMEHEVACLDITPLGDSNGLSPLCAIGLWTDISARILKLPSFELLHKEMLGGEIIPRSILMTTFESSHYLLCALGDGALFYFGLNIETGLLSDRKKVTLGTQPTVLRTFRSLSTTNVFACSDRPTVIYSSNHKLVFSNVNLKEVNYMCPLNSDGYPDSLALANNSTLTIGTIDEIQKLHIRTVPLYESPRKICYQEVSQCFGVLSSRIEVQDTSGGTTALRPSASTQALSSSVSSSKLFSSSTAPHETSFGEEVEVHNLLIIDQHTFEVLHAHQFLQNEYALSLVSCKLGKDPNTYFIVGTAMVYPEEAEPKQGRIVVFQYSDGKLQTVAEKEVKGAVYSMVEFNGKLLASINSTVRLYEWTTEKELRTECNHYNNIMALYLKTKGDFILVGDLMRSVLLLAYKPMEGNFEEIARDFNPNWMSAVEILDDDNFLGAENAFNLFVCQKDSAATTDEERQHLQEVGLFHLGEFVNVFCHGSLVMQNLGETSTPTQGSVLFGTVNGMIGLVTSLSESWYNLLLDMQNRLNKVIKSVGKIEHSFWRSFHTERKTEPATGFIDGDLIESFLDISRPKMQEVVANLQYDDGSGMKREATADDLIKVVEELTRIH

Compound | EC50 [1] [nM] | EC50 ([1]; HTRF class, Cereblon binding) [nM] | Dmax ([2]; read-out: NEK7 NanoBiT Dmax) [%] | Dmax [2, 3] [%] | DC50 ([2]; read-out: NEK7 NanoBiT DC50) [nM] | DC50 [2, 4] [nM]
CC(C)(C(=O)NCc1cc(Cl)c(C2CCC(=O)NC2=O)c(Cl)c1)c1ccc2nonc2c1 (stereo not drawn) [Compound 81] | 70 | ≤ 100 | 98 | > 75 | 0.4 | ≤ 100
Cc1ocnc1C(C)(C)C(=O)NCc1cc(Cl)c(C2CCC(=O)NC2=O)c(Cl)c1 (stereo not drawn) [Compound 236] | 250 | 100 to 1000 | 71 | 50 to 75 | 41 | ≤ 100
Cc1cc(C(C)(C)C(=O)NCc2cc(Cl)c(C3CCC(=O)NC3=O)c(Cl)c2)cc(C)n1 (stereo not drawn) [Compound 86] | 160 | 100 to 1000 | 85 | > 75 | 21 | ≤ 100
CC(F)(F)c1cnc(C(C)(C)C(=O)NCc2cc(Cl)c(C3CCC(=O)NC3=O)c(Cl)c2)cn1 (stereo not drawn) [Compound 263] | 100 | 100 to 1000 | 90 | > 75 | 7 | ≤ 100
CC(C)(C(=O)NCc1cc(Cl)c(C2CCC(=O)NC2=O)c(Cl)c1)c1ccc(OC(F)F)nn1 (stereo not drawn) [Compound 210] | 460 | 100 to 1000 | 96 | > 75 | 2 | ≤ 100
Cn1ccc(C2(C(=O)NCc3cc(Cl)c(C4CCC(=O)NC4=O)c(Cl)c3)CCC2)cc1=O (stereo not drawn) [Compound 177] | 550 | 100 to 1000 | 85 | > 75 | 53 | ≤ 100
O=C1CCC(c2c(Cl)cc(CNC(=O)C3(c4ccccc4)CCC3)cc2Cl)C(=O)N1 (stereo not drawn) [Compound 130, N-(3,5-dichloro-4-(2,6-dioxopiperidin-3-yl)benzyl)-1-phenylcyclobutane-1-carboxamide] | 40 | ≤ 100 | 96 | > 75 | 2 | ≤ 100
CC(C)(C(=O)NCc1cc(Cl)c(C2CCC(=O)NC2=O)c(Cl)c1)c1nc2ccccc2o1 (stereo not drawn) [Compound 167] | 90 | ≤ 100 | 96 | > 75 | 1 | ≤ 100
CC(C)(C(=O)NCc1cc(Cl)c(C2CCC(=O)NC2=O)c(Cl)c1)c1ccc(NS(C)(=O)=O)cc1 (stereo not drawn) [Compound 50] | 150 | 100 to 1000 | 88 | > 75 | 18 | ≤ 100
CC1(c2cnc(C(C)(C)C(=O)NCc3cc(Cl)c(C4CCC(=O)NC4=O)c(Cl)c3)nc2)CC1 (stereo not drawn) [Compound 207] | 90 | ≤ 100 | 82 | > 75 | 19 | ≤ 100
CC(C)(C(=O)NCc1cc(Cl)c(C2CCC(=O)NC2=O)c(Cl)c1)c1cn(C(C)(F)F)c(=O)cn1 (stereo not drawn) [Compound 266, N-(3,5-dichloro-4-(2,6-dioxopiperidin-3-yl)benzyl)-2-(4-(1,1-difluoroethyl)-5-oxo-4,5-dihydropyrazin-2-yl)-2-methylpropanamide] | 120 | 100 to 1000 | 82 | > 75 | 15 | ≤ 100
CC(C)(O)c1cnc(C(C)(C)C(=O)NCc2cc(Cl)c(C3CCC(=O)NC3=O)c(Cl)c2)nc1 (stereo not drawn) [Compound 147] | 550 | 100 to 1000 | 52 | 50 to 75 | 776 | 100 to 1000
CC(C)(C(=O)NCc1cc(Cl)c(C2CCC(=O)NC2=O)c(Cl)c1)c1ccc(C#N)cc1 (stereo not drawn) [Compound 29] | 80 | ≤ 100 | 97 | > 75 | 0.4 | ≤ 100
Cc1noc(C(C)(C)C(=O)NCc2cc(Cl)c(C3CCC(=O)NC3=O)c(Cl)c2)n1 (stereo not drawn) [Compound 164] | 240 | 100 to 1000 | 68 | 50 to 75 | 66 | ≤ 100
COc1cnc(C(C)(C)C(=O)NCc2cc(Cl)c(C3CCC(=O)NC3=O)c(Cl)c2)cn1 (stereo not drawn) [Compound 209] | 90 | ≤ 100 | 97 | > 75 | 1 | ≤ 100
CC(C)(C(=O)NCc1cc(Cl)c(C2CCC(=O)NC2=O)c(Cl)c1)c1cc[nH]c(=O)c1 (stereo not drawn) [Compound 84] | 180 | 100 to 1000 | 93 | > 75 | 22 | ≤ 100
CC(C)(C(=O)NCc1cc(Cl)c(C2CCC(=O)NC2=O)c(Cl)c1)c1cnc(CO)cn1 (stereo not drawn) [Compound 206] | 100 | 100 to 1000 | 85 | > 75 | 18 | ≤ 100
CC(C)(C(=O)NCc1cc(Cl)c([C@]2(F)CCC(=O)NC2=O)c(Cl)c1)c1ccccc1 (single isomer, unassigned) [Compound 273] | 250 | 100 to 1000 | 70 | 50 to 75 | 136 | 100 to 1000
CC(C)(C(=O)NCc1cc(Cl)c(C2CCC(=O)NC2=O)c(Cl)c1)c1ccc2nnccc2c1 (stereo not drawn) [Compound 41] | 60 | ≤ 100 | 98 | > 75 | 0.4 | ≤ 100
CC(C)(C(=O)NCc1ccc(C2CCC(=O)NC2=O)c(Cl)c1)c1ccc(C#N)cc1 (stereo not drawn) [Compound 28] | 470 | 100 to 1000 | 91 | > 75 | 17 | ≤ 100
CC(C)(C(=O)NCc1cc(Cl)c(C2CCC(=O)NC2=O)c(Cl)c1)c1cc(F)nc(F)c1 (stereo not drawn) [Compound 73] | 170 | 100 to 1000 | 93 | > 75 | 4 | ≤ 100
COCc1ccnc(C(C)(C)C(=O)NCc2cc(Cl)c(C3CCC(=O)NC3=O)c(Cl)c2)n1 (stereo not drawn) [Compound 217] | 150 | 100 to 1000 | 56 | 50 to 75 | 327 | 100 to 1000
Cn1ncc2ccc(C(C)(C)C(=O)NCc3cc(Cl)c(C4CCC(=O)NC4=O)c(Cl)c3)cc21 (stereo not drawn) [Compound 78] | 60 | ≤ 100 | 97 | > 75 | 0.4 | ≤ 100
Cc1cnc(C(C)(C)C(=O)NCc2cc(Cl)c([C@@H]3CCC(=O)NC3=O)c(Cl)c2)nc1 (single isomer, unassigned) [Compound 154] | 180 | 100 to 1000 | 89 | > 75 | 4 | ≤ 100
CC(C)(C(=O)NCc1cc(Cl)c(C2CCC(=O)NC2=O)c(Cl)c1)c1ccncn1 (stereo not drawn) [Compound 19, N-(3,5-dichloro-4-(2,6-dioxopiperidin-3-yl)benzyl)-2-methyl-2-(pyrimidin-4-yl)propanamide] | 140 | 100 to 1000 | 84 | > 75 | 23 | ≤ 100
COc1nccc(C(C)(C)C(=O)NCc2cc(Cl)c(C3CCC(=O)NC3=O)c(Cl)c2)n1 (stereo not drawn) [Compound 46] | 50 | ≤ 100 | 71 | 50 to 75 | 61 | ≤ 100
